Key:
human αvβ8 = biological target: T1, human αvβ8 (Homo sapiens, UniProt P06756+P26012); assay: Latent TGFβ activation assay, TMLC / CHOK1-integrin co-culture (PAI-1 luciferase); type: cell-based; conditions: FIG. 5B
T1 construct: expressed in transfected cells
Procedure: (§1) Latent TGFβ activation assay. Transfected mink lung epithelial cell (TMLC) cell line containing the TGFβ responsive PAI-1 promoter driving luciferase expression (Mazzieri et al, Methods Mol. Biol. 142, 13-27 (2000)) and the CHO-K1 human and mouse αvβ×integrin cell lines were grown under optimized growth conditions to 90% confluency. TMLC cells were trypsinized and plated at 25,000 cells/well in 50 μL in Costar clear bottom white walled plates. In a separate plate, 25 μL of serially diluted antibodies at 4×concentration were added to wells containing 25 μL of either 25,000 cells of human or mouse αvβ×cells. After a brief mixing, the 50 μL mixture was transferred to the TMLC cell plates for a total volume of 100 μL and incubated at 37° C. for 16 hours. 100 μL of ONE-Glo kit (#PRE6120) was added to each well and read after three to five minutes on the Envision plate reader.

mouse αvβ6 = biological target: T2, mouse αvβ6 (Mus musculus, UniProt P43406+Q9Z0T9); assay: as above; type: cell-based; conditions: FIG. 5B
T2 construct: expressed in transfected cells
Procedure: as §1

mouse αvβ1 [1] = biological target: T3, mouse αvβ1 (Mus musculus, UniProt P09055+P43406); assay: as above; type: cell-based; conditions: FIG. 5B
T3 construct: expressed in transfected cells
Procedure: as §1

human αvβ1 = biological target: T4, human αvβ1 (Homo sapiens, UniProt P05556+P06756); assay: as above; type: cell-based; conditions: FIG. 5B
T4 construct: expressed in transfected cells
Procedure: as §1

human αvβ6 = biological target: T5, human αvβ6 (Homo sapiens, UniProt P06756+P18564); assay: as above; type: cell-based; conditions: FIG. 5B
T5 construct: expressed in transfected cells
Procedure: as §1

[2] = humans; cited from earlier work
[3] = tested on: IPF patient lung fibroblasts; assay: αSMA imaging, TGFβ-induced αSMA expression; type: cell-based, human; parameters: inhibiting αSMA induction: dose or concentration left out as unconfirmed
Procedure: αSMA imaging. Primary cells (passage 3-5) were grown on Cell carrier Ultra, collagen Type 1 coated 96-well plates (Perkin Elmer, #6055700) at a density of 25,000 cells/well. Once the cells adhere, they were starved in serum free media for 24 hours followed by addition of treatments, i.e., 5 ng/mL TGFβ (Biolegend #580702)±inhibitors. Cells were pre-treated with inhibitors for 30 minutes prior to the addition of TGFβ stimulation. 48 hours post treatment, the cells were fixed in 4% methanol free paraformaldehyde (ThermoFisher Scientific #28908) for 20 minutes at room temperature and incubated with anti-alpha smooth muscle Actin antibody (Abcam #ab7817) at 1:4000 overnight at 4° C. Following primary antibody incubation, cells were incubated with Goat anti-mouse secondary antibody (ThermoFisher Scientific #A32723) at 1:500 and Hoechst (ThermoFisher Scientific #62249) at 1:1000 for one hour at RT. The fixed and stained cells were images for immunofluorescence on Perkin Elmer's Opera Phenix high content Imager.

[4] = osteoporosis patients, 52 weeks; cited from earlier work
mouse αvβ1 [5] = biological target: T3, mouse αvβ1; assay: Cell adhesion assay, CHOK1-α5KO-mαvβ1 cells on fibronectin; type: cell-based; conditions: FIG. 11
Procedure: Cell adhesion assay. For plate preparation, Epic 384-well assay plates (Corning #5040) were washed with OptiMEM™ (Gibco #31985-070) and coated with murine fibronectin (Abcam #ab92784) at a concentration of 0.1 μg/well for CHO-α5KO-mαvβ1 cells; murine vitronectin (Abcam #ab92727) at 0.075 μg/well for CHO-mαvβ3 cells; or murine vitronectin at 0.125 μg/well for CHO-mαvβ5 (all at a volume of 25 μL/well in OptiMEM™), for one hour. Coating solution was then removed by flicking and plates were washed with OptiMEM™ and blocked with 25 μL/well of assay buffer (1% Ovalbumin (Sigma #A5503-10G) in OptiMEM™ containing 1×Pen-Strep (Gibco #15140-148)). A 5-minute baseline reading was taken on a Corning Epica Plate Reader (Model: Epic BT-157900) before removing the assay buffer and adding cells pre-incubated with inhibitors. The Epic™ plate reader detects cellular mass redistribution (adhesion) on the plate surface as a picometer wavelength shift over time. For inhibitor titration preparation: fivefold serial dilutions of small molecule inhibitor MK-0429 or antibody inhibitor Ab-31 were prepared in assay buffer at 4× the final concentration in a 384-well polypropylene plate in a volume of 15 μL per well, starting at a concentration of 800 nM. […]

[6] = tested on: experimental diabetic nephropathy model; conditions: cited from earlier work
CHOK1 parental cells = assay: Cell adhesion assay, CHOK1 parental cells on fibronectin; type: cell-based, hamster; conditions: FIG. 11

T3 sequence (P43406 31-1044): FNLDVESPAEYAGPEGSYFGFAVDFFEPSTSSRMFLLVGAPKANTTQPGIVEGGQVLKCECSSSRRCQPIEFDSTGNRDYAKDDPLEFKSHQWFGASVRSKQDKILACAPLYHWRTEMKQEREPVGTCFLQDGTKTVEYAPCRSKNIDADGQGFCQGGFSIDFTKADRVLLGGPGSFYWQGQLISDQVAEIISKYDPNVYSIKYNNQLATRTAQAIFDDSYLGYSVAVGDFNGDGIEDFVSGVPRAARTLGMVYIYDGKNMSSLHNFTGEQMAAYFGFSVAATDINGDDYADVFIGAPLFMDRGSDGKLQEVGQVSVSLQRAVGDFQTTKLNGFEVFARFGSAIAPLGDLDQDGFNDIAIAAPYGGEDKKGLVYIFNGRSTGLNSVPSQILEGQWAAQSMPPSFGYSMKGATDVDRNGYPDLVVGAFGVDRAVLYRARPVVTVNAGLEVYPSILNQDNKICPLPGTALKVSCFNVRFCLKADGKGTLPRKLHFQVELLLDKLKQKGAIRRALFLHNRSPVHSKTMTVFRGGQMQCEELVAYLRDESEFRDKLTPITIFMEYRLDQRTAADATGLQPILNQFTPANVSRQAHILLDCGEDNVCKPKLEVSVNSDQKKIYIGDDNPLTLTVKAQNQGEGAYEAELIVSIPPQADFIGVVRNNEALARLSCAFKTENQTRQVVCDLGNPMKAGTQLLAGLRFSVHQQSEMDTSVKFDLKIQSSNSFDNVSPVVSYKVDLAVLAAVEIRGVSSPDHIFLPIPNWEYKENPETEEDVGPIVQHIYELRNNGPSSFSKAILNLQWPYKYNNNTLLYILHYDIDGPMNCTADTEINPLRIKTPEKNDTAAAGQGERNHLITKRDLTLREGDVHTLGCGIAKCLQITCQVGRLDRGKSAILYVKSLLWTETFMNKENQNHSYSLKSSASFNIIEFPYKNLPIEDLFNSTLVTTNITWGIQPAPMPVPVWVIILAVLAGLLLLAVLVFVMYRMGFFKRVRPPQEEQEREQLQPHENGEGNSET
T3 sequence (P09055 21-798): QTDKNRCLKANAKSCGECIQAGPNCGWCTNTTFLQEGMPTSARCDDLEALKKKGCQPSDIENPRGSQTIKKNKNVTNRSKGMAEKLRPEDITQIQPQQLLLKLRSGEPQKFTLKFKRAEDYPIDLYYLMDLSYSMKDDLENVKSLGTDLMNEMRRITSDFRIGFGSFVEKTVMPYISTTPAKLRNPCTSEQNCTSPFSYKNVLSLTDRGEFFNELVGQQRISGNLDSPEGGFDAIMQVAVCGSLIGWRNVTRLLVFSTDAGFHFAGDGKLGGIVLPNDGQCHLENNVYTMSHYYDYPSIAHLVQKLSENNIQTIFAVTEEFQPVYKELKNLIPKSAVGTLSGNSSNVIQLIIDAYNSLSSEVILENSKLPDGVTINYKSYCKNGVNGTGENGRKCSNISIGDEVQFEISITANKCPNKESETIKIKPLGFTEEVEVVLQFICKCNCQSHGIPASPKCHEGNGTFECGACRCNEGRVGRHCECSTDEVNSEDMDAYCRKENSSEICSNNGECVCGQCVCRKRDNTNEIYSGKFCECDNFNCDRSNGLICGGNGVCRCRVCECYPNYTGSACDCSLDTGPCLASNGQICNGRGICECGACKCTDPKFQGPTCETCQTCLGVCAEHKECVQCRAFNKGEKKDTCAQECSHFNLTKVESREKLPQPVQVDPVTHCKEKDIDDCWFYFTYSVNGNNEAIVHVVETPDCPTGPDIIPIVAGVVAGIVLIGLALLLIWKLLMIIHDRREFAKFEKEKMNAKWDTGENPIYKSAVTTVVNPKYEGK
T2 sequence (P43406 31-1044): as the sequence (P43406 31-1044) above
T2 sequence (Q9Z0T9 22-787): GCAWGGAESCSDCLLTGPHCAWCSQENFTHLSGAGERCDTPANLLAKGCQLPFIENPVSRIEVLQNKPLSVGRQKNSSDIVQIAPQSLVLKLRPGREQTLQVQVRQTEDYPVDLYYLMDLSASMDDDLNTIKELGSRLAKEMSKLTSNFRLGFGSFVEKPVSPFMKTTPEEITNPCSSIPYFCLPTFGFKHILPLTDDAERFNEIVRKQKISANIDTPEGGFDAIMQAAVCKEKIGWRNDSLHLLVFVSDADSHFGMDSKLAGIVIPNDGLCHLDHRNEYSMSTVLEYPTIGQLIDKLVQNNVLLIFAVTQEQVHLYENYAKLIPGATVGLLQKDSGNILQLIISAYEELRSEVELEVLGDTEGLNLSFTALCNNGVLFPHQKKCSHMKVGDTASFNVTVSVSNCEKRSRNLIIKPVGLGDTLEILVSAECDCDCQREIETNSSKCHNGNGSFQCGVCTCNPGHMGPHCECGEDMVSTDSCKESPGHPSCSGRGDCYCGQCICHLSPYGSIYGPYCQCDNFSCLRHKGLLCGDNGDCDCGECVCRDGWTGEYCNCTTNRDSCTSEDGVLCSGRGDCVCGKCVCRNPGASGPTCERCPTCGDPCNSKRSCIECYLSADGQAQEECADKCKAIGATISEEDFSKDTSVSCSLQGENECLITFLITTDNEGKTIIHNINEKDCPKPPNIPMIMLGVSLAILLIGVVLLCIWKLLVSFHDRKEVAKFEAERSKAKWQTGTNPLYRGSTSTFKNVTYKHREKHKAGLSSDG
T5 sequence (P06756 31-1048): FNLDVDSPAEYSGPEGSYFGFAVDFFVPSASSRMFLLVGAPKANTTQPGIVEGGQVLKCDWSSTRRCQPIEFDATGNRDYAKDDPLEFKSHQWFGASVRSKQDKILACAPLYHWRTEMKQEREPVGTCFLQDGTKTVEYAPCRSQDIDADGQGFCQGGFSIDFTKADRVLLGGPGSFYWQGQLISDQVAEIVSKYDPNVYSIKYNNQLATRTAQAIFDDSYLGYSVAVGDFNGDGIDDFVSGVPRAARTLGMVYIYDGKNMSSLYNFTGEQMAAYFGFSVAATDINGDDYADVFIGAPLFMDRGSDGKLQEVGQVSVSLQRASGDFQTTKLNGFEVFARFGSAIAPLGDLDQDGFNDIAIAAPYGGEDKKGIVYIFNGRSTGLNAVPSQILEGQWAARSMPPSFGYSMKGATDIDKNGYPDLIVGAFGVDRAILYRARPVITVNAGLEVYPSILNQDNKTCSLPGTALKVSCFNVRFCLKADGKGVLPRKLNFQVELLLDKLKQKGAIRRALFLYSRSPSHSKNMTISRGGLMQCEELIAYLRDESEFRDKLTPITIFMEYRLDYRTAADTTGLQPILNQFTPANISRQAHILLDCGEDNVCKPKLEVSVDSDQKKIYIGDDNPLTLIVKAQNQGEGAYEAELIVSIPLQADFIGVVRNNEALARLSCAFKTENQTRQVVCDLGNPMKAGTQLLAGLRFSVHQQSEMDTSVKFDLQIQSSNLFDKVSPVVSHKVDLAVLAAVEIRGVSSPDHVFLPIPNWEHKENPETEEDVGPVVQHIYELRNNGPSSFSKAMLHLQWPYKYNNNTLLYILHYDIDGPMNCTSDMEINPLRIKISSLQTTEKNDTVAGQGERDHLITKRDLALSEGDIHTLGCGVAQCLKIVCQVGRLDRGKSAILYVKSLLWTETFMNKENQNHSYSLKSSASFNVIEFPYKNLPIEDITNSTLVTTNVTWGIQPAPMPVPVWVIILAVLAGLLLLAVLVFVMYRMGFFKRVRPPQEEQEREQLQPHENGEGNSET
T5 sequence (P18564 22-788): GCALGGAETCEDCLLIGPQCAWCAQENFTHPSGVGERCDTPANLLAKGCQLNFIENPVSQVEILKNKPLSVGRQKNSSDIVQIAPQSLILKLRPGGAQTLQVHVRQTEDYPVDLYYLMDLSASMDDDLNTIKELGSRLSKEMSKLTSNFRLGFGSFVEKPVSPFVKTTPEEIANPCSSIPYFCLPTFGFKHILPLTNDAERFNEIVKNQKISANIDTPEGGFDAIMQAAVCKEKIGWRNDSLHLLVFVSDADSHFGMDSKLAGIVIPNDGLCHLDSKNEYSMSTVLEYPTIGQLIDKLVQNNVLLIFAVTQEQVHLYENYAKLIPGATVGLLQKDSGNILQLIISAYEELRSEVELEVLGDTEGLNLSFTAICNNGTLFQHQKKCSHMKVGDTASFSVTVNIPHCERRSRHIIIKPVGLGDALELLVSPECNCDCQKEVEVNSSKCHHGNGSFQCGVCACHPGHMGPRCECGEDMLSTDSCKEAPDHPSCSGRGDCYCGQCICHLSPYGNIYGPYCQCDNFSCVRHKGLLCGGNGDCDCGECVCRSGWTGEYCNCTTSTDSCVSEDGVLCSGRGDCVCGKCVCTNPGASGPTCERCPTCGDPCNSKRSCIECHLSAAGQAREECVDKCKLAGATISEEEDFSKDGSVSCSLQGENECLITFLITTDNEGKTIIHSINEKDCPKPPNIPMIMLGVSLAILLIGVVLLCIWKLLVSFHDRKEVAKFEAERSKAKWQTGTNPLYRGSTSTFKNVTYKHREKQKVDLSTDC

COc1ccc([C@H](CC(=O)O)N2CCN(CCCc3ccc4c(n3)NCCC4)C2=O)cn1 [MK-0429, (3S)-3-(6-methoxypyridin-3-yl)-3-[2-oxo-3-[3-(5,6,7,8-tetrahydro-1,8-naphthyridin-2-yl)propyl]imidazolidin-1-yl]propanoic acid]
inhibition of latent TGFβ activation, human αvβ8 co-culture (human αvβ8): strong inhibitory effect
inhibition of latent TGFβ activation, mouse αvβ6 co-culture (mouse αvβ6): strong inhibitory effect
inhibition of latent TGFβ activation, mouse αvβ1 co-culture (mouse αvβ1 [1]): strong inhibitory effect
inhibition of latent TGFβ activation, human αvβ1 co-culture (human αvβ1): strong inhibitory effect
inhibition of latent TGFβ activation, human αvβ6 co-culture (human αvβ6): strong inhibitory effect
oral bioavailability [2]: good oral bioavailability
inhibiting αSMA induction [3]: minimal activity
safety profile [4]: relatively well-tolerated safety profile
adhesion of mouse αvβ1-expressing CHOK1-α5KO cells (mouse αvβ1 [5]): potently reduced
proteinuria [6]: reduces
renal fibrosis [6]: reduces
inhibition of adhesion of CHOK1 parental cells on fibronectin (CHOK1 parental cells): little inhibitory activity

From US20250313635A1, “ANTI-INTEGRIN ANTIBODIES AND USES THEREOF” (Merck Sharp & Dohme LLC, priority 2022, published 2025)
